Here are results for 1 molecule from patent publication US9834754B2, “Populations of hematopoietic progenitors and methods of enriching stem cells therefor” (University Health Network, priority 2011, dated 2017).

Assay type in all cases: cell-based, human
The subject of assay [1] is H1 hESCs differentiated as embryoid bodies (EBs). Kind of assay: Hematopoietic colony assay of hESC-derived EBs. Here is the method:
The hESC line H1 (Thomson et al., 1998) and the reprogrammed human iPS cell line (MSC-iPS1; (Park et al., 2008)) were used in this study. They were maintained on irradiated mouse embryonic fibroblasts in hESC media as described previously (Kennedy et al., 2007). Prior to differentiation, the cells were feeder-depleted by culturing on matrigel (BD Biosciences, Bedford, Mass.) in hESC media for 24 to 48 hours. To generate EBs, hPSCs were treated with collagenase B (1 mg/ml; Roche, Indianapolis, Ind.) for 20 minutes followed by a short trypsin-EDTA (0.05%) step. Cells were gently scraped with a cell scraper to form small aggregates (10-20 cells). Aggregates were resuspended in StemPro-34 (Invitrogen), supplemented with penicillin/streptomycin (10 ng/mL), L-glutamine (2 mM), ascorbic acid (1 mM), monothioglycerol (MTG, 4×10^−4M; Sigma), and transferrin (150 μg/mL). BMP-4 (10 ng/mL), bFGF (5 ng/mL), Activin A, 6 μM SB-431542, VEGF (15 ng/mL), Dkk (150 ng/mL), IL-6 (10 ng/mL), IGF-1 (25 ng/mL), IL-11 (5 ng/mL), SCF (50 ng/mL), EPO (2 U/mL final), TPO (30 ng/mL), IL-3 (30 ng/mL) and Flt-3L (10 ng/mL) were added as indicated. Cultures were maintained in a 5% CO2/5% O2/90% N2 environment for the first 8 days and then transferred to a 5% CO2/air environment. All recombinant factors are human and were purchased from R&D Systems (Minneapolis, Minn.).
Analysis of hematopoietic colony potential was performed by plating either 5×103-2.5×10^4 sorted cells or 2.5×104-5.0×104 unfractionated EB populations in 1% methylcellulose containing specific cytokines as described in detail previously (Kennedy et al., 2007). Colonies consisting of erythroid, erythroid/myeloid and myeloid (either macrophage or mast cell) cells were quantified after 10-14 days.

Assay [2] has the same test system. Nature of the assay: Flow cytometric analysis of surface markers on hESC-derived EBs. Here is the method: The hESC line H1 (Thomson et al., 1998) and the reprogrammed human iPS cell line (MSC-iPS1; (Park et al., 2008)) were used in this study. They were maintained on irradiated mouse embryonic fibroblasts in hESC media as described previously (Kennedy et al., 2007). Prior to differentiation, the cells were feeder-depleted by culturing on matrigel (BD Biosciences, Bedford, Mass.) in hESC media for 24 to 48 hours. To generate EBs, hPSCs were treated with collagenase B (1 mg/ml; Roche, Indianapolis, Ind.) for 20 minutes followed by a short trypsin-EDTA (0.05%) step. Cells were gently scraped with a cell scraper to form small aggregates (10-20 cells). Aggregates were resuspended in StemPro-34 (Invitrogen), supplemented with penicillin/streptomycin (10 ng/mL), L-glutamine (2 mM), ascorbic acid (1 mM), monothioglycerol (MTG, 4×10^-4M; Sigma), and transferrin (150 μg/mL). BMP-4 (10 ng/mL), bFGF (5 ng/mL), Activin A, 6 μM SB-431542, VEGF (15 ng/mL), Dkk (150 ng/mL), IL-6 (10 ng/mL), IGF-1 (25 ng/mL), IL-11 (5 ng/mL), SCF (50 ng/mL), EPO (2 U/mL final), TPO (30 ng/mL), IL-3 (30 ng/mL) and Flt-3L (10 ng/mL) were added as indicated. Cultures were maintained in a 5% CO2/5% O2/90% N2 environment for the first 8 days and then transferred to a 5% CO2/air environment. All recombinant factors are human and were purchased from R&D Systems (Minneapolis, Minn.). The following antibodies were used for these studies: CD3-APC (clone UCHT1), CD4-APC-EFluor750 (clone RPA-T4), CD5-PE-Cy7 (clone L17F12), CD7-FITC (clone M-[…]), CD8-eFluor-650 NC (clone RPA-T8), CD31-FITC (clone WM59), CD33-FITC (clone HIM 3-4), CD34-APC (clone 8G12), CD34-PE-CY7 (clone 4H11), CD41-APC (clone HIP8), […]10), CD45-APC-eFluor750 (clone 2D1) or CD45-PacificBlue (clone H130), CD56-PE-Cy7 (clone B159), CD90-APC (clone 5E10), CD117-APC (clone 104D2), CD144-PE (clone 123413), KDR-PE (clone 89106), TCRγδ-FITC (clone 11F2), TCRαβ-PE (clone T10B9.1A-31). Stained cells were analyzed using an LSRII (BD Biosciences) flow cytometer at the indicated time points. Data analysis was performed using FlowJo software. For T lymphoid studies, analyses were carried out by gating on live cells and lack of 6-Diamidino-2-phenylindole (DAPI) uptake, followed by gating on cells expressing CD45. All antibodies were purchased from BD Biosciences (San Diego, Calif.) with the following exceptions: CD8 eFluor-650 NC and CD34-PE-CY7 were purchased from eBioscience (San Diego, Calif.) and KDR was purchased from R&D systems. Cells were sorted with […] (BD) cell sorter at the Sick Kids/UHN Flow Cytometry Facility.

Assay [3] concerns CD34+ population isolated from EBs. Nature of the assay: RT-qPCR expression analysis of CD34+ fractions from day 9 EBs. Particulars: FIG. 4E. As to the method: Total RNA was prepared with the RNAqueous RNA Isolation Kit (Ambion) and treated with RNase-free DNase (Qiagen). 100 ng to 1 ug RNA was transcribed into cDNA using random hexamers and Oligo (dT) with Superscript III Reverse Transcriptase (Invitrogen). Real-time quantitative PCR was performed on a MasterCycler EP RealPlex (Eppendorf). All experiments were carried out in triplicate using SYBR Green JumpStart Taq ReadyMix (Sigma). The oligonucleotide sequences are available upon request. Gene expression was evaluated as DeltaCt relative to control (ACTB).

Setting [4] is: inhibition between days 2 and 4, FIG. 4C.

Structures are written as SMILES.

Regarding `NC(=O)c1ccc(-c2nc(-c3ccc4c(c3)OCO4)c(-c3ccccn3)[nH]2)cc1` [SB-431542], the “erythroid progenitors in SB-treated EBs” value in assay [1] (any of the timepoints assayed, FIG. 4D) was “not detected”. The “erythroid progenitors in day 13 EBs” value in assay [1] (treatment between days 2 and 4 of differentiation, Activin A at increasing concentrations, FIG. 1C) is listed as “eliminated almost all erythroid progenitors”. Further, in assay [2] (SB added at day 3 of differentiation, FIG. 9), the “CD43+ population at day 9 when SB addition delayed until day 3” value was “development of some CD43^+ cells”. For the same molecule, in assay [2] (SB added between days 2 and 4 of differentiation), the “development of KDR+ and CD34+ populations” value is “developed normally”. The “induction of KDR+CD34+ hematopoietic mesoderm population at day 5 of differentiation” value in assay [2] (SB added within the first 24 hours of differentiation, FIG. 4A) is “completely blocked”. For the same molecule, in assay [2] (setting [4]), the “development of the CD43+ population in day 9 EBs” value is reported as “completely blocked” and the “effect on CD34+ cells in day 9 EBs” value was “did not appear to impact”. Also, the “development of KDR+ cells (mesoderm formation)” value in assay [2] (inhibitor added between days 1 and 2 of differentiation) is reported as “prevented the development of any KDR^+ cells”. Also, in assay [3], the “expression of LMO2, GATA1, GATA2 and HOXB4 versus Activin A-induced population” value is given as “comparable”; the “expression of SOX17 and AML1C in CD34+ population versus Activin A-induced CD34+CD43− population” value is listed as “higher levels”.
